# “And” between values parts separate entries of the source, which are not always exact repeats. Equal entries are not always repeated.
# What was measured:
# [1] = test system: CD8+ T cells from Influenza A positive donors sorted using tetramers containing HLA A2.1::[…]; format: cell-based
# [2] = molecular target: HLA-A0201 (Homo sapiens, UniProt P04439, D140Y/D185E/D98H/E176V/E277Q/G131W/G231S/I119V/I121R/I166T/I218V/L300P/L318F/N151K/N90K/P208A/P217A/Q86G/Q94H/R138H/R169H/T345S); format: binding
# [3] = test system: CD8+ T cells from Influenza A positive donors sorted using tetramers containing HLA A2.1::[…]; format: cell-based; remark: listed apart in the source
# [4] = test system: HLA-A2::Mart-1(26-35) reactive T cells stimulated by T2 cells; assay: T cell activation time course assay, IFNγ production (FACS), Mart-1 epitope; format: cell-based; conditions: for % CD8+ T cells producing IFN-γ 0H / Geometric mean IFN-γ in arbitrary fluorescence units 0H: time point 0H (basal); for % CD8+ T cells producing IFN-γ 2H / Geometric mean IFN-γ in arbitrary fluorescence units 2H: time point 2H; for % CD8+ T cells producing IFN-γ 4H / Geometric mean IFN-γ in arbitrary fluorescence units 4H: time point 4H; for % CD8+ T cells producing IFN-γ 24H / Geometric mean IFN-γ in arbitrary fluorescence units 24H: time point 24H; for % CD8+ T cells producing IFN-γ 24H / Geometric mean IFN-γ in arbitrary fluorescence units 24H / % CD8+ T cells producing IFN-γ 48H / Geometric mean IFN-γ in arbitrary fluorescence units 48H: free peptide washed away; for % CD8+ T cells producing IFN-γ 48H / Geometric mean IFN-γ in arbitrary fluorescence units 48H: time point 48H
# [5] = test system: […]-specific CD8+ T cells; assay: Mouse vaccination study, tetramer analysis of blood, […]; format: in vivo; conditions: mice vaccinated with 5 µg peptide with IFA and CpG, booster at day 97, several timepoints, versus […] vaccinated mice
# Description: Three mouse vaccination studies were done using three different wild-type epitopes. In all cases, mice were vaccinated with the peptide supplemented with incomplete freunds ajuvant (IFA) and CpG. Analysis was done by analyzing blood samples with tetramers loaded with wild-type peptide in all cases.
# Two groups of three mice were vaccinated with 5 µg of either […] or [am-phg][NVA]AGIGILT[PRG]. At day 97, mice were administred a second dose (booster). At several timepoints blood was taken and tested for […]-specific CD8+ T cells using tetramers loaded with […]. This was done for both groups of mice.
# [6] = test system: CD8+ T cells with SVYDFFVWL (Melanoma, TRP-2, residues 180-188) specific T cell receptor; assay: T cell activation time course assay, IFNγ production by FACS, TRP-2 epitope; format: cell-based; conditions: 48H, peptide 50 picomolar
# Description: FACS was employed to obtain results.
# Also for this epitope, an IFNγ expression time-course experiment was performed. The two distinguishing time points 24H and 48H were taken along at peptide concentrations of 5·10^3 pM, 50 pM and 0.5 pM.
substance,measurement,setting,value
[am-phg][BUTALA]LGFVFTL,% CD8+ T cells producing IFN-γ % IFN,[1],2.8%
same,Geometric mean IFN-γ in arbitrary fluorescence units Geo IFN,[1],205 arbitrary fluorescence units
same,% inhibition at T=4H and T=24H FP 24h,[2],96%
same,IC50 Ratio,[2],3
same,% Positive TCR recognition % TCR,[3],3.32%
same,Geometric mean IFN in arbitrary fluorescence units Geo TCR,[3],155 arbitrary fluorescence units
[am-phg][BUTALA]LGFV[4-FPHE]TL,% CD8+ T cells producing IFN-γ % IFN,[1],2.6%
same,Geometric mean IFN-γ in arbitrary fluorescence units Geo IFN,[1],266 arbitrary fluorescence units
same,% inhibition at T=4H and T=24H FP 4h,[2],83%
same,% inhibition at T=4H and T=24H FP 24h,[2],84%
same,IC50 Ratio,[2],3
same,% Positive TCR recognition % TCR,[3],3.20%
same,Geometric mean IFN in arbitrary fluorescence units Geo TCR,[3],217 arbitrary fluorescence units
[am-phg][CpALA]LGFVFTL,% CD8+ T cells producing IFN-γ % IFN,[1],2.2%
same,Geometric mean IFN-γ in arbitrary fluorescence units Geo IFN,[1],259 arbitrary fluorescence units
same,% inhibition at T=4H and T=24H FP 24h,[2],91%
same,IC50 Ratio,[2],2
same,% Positive TCR recognition % TCR,[3],3.17%
same,Geometric mean IFN in arbitrary fluorescence units Geo TCR,[3],150 arbitrary fluorescence units
[am-phg][CpALA]LGFV[4-FPHE]TL,% CD8+ T cells producing IFN-γ % IFN,[1],2.8%
same,Geometric mean IFN-γ in arbitrary fluorescence units Geo IFN,[1],243 arbitrary fluorescence units
same,% inhibition at T=4H and T=24H FP 4h,[2],96%
same,% inhibition at T=4H and T=24H FP 24h,[2],96%
same,IC50 Ratio,[2],5
same,% Positive TCR recognition % TCR,[3],3.26%
same,Geometric mean IFN in arbitrary fluorescence units Geo TCR,[3],208 arbitrary fluorescence units
[am-phg][NLE]LGFV[4-FPHE]TL,% CD8+ T cells producing IFN-γ % IFN,[1],3.0%
same,Geometric mean IFN-γ in arbitrary fluorescence units Geo IFN,[1],221 arbitrary fluorescence units
same,% inhibition at T=4H and T=24H FP 4h,[2],82%
same,% inhibition at T=4H and T=24H FP 24h,[2],83%
same,IC50 Ratio,[2],3
same,% Positive TCR recognition % TCR,[3],3.40%
same,Geometric mean IFN in arbitrary fluorescence units Geo TCR,[3],302 arbitrary fluorescence units
[am-phg][NVA]AGIGILT[ALG],% inhibition at T=4H and T=24H FP 4h,[2],58%
same,% inhibition at T=4H and T=24H FP 24h,[2],63%
same,IC50 Ratio,[2],2.5 and 2
same,% CD8+ T cells producing IFN-γ 0H,[4]; peptide 0.5 pM,0%
same,Geometric mean IFN-γ in arbitrary fluorescence units 0H,[4]; peptide 0.5 pM,112 arbitrary fluorescence units
same,% CD8+ T cells producing IFN-γ 2H,[4]; peptide 0.5 pM,26%
same,Geometric mean IFN-γ in arbitrary fluorescence units 2H,[4]; peptide 0.5 pM,221 arbitrary fluorescence units
same,% CD8+ T cells producing IFN-γ 4H,[4]; peptide 0.5 pM,29%
same,Geometric mean IFN-γ in arbitrary fluorescence units 4H,[4]; peptide 0.5 pM,350 arbitrary fluorescence units
same,% CD8+ T cells producing IFN-γ 24H,[4]; peptide 0.5 pM,17%
same,Geometric mean IFN-γ in arbitrary fluorescence units 24H,[4]; peptide 0.5 pM,163 arbitrary fluorescence units
same,% CD8+ T cells producing IFN-γ 48H,[4]; peptide 0.5 pM,5%
same,Geometric mean IFN-γ in arbitrary fluorescence units 48H,[4]; peptide 0.5 pM,111 arbitrary fluorescence units
same,% CD8+ T cells producing IFN-γ 0H,[4]; peptide 50 pM,0%
same,Geometric mean IFN-γ in arbitrary fluorescence units 0H,[4]; peptide 50 pM,109 arbitrary fluorescence units
same,% CD8+ T cells producing IFN-γ 2H,[4]; peptide 50 pM,28%
same,Geometric mean IFN-γ in arbitrary fluorescence units 2H,[4]; peptide 50 pM,247 arbitrary fluorescence units
same,% CD8+ T cells producing IFN-γ 4H,[4]; peptide 50 pM,33%
same,Geometric mean IFN-γ in arbitrary fluorescence units 4H,[4]; peptide 50 pM,715 arbitrary fluorescence units
same,% CD8+ T cells producing IFN-γ 24H,[4]; peptide 50 pM,29%
same,Geometric mean IFN-γ in arbitrary fluorescence units 24H,[4]; peptide 50 pM,400 arbitrary fluorescence units
same,% CD8+ T cells producing IFN-γ 48H,[4]; peptide 50 pM,20%
same,Geometric mean IFN-γ in arbitrary fluorescence units 48H,[4]; peptide 50 pM,280 arbitrary fluorescence units
[am-phg][NVA]AGIGILT[PRG],[…]-specific CD8+ T cells (specific T cell numbers),[5],higher
same,% inhibition at T=4H and T=24H FP 4h,[2],67%
same,% inhibition at T=4H and T=24H FP 24h,[2],64%
same,IC50 Ratio,[2],8.3 and 8
same,% CD8+ T cells producing IFN-γ 0H,[4]; peptide 0.5 pM,0%
same,Geometric mean IFN-γ in arbitrary fluorescence units 0H,[4]; peptide 0.5 pM,141 arbitrary fluorescence units
same,% CD8+ T cells producing IFN-γ 2H,[4]; peptide 0.5 pM,25%
same,Geometric mean IFN-γ in arbitrary fluorescence units 2H,[4]; peptide 0.5 pM,197 arbitrary fluorescence units
same,% CD8+ T cells producing IFN-γ 4H,[4]; peptide 0.5 pM,30%
same,Geometric mean IFN-γ in arbitrary fluorescence units 4H,[4]; peptide 0.5 pM,342 arbitrary fluorescence units
same,% CD8+ T cells producing IFN-γ 24H,[4]; peptide 0.5 pM,16%
same,Geometric mean IFN-γ in arbitrary fluorescence units 24H,[4]; peptide 0.5 pM,165 arbitrary fluorescence units
same,% CD8+ T cells producing IFN-γ 48H,[4]; peptide 0.5 pM,3%
same,Geometric mean IFN-γ in arbitrary fluorescence units 48H,[4]; peptide 0.5 pM,105 arbitrary fluorescence units
same,% CD8+ T cells producing IFN-γ 0H,[4]; peptide 50 pM,0%
same,Geometric mean IFN-γ in arbitrary fluorescence units 0H,[4]; peptide 50 pM,110 arbitrary fluorescence units
same,% CD8+ T cells producing IFN-γ 2H,[4]; peptide 50 pM,28%
same,Geometric mean IFN-γ in arbitrary fluorescence units 2H,[4]; peptide 50 pM,252 arbitrary fluorescence units
same,% CD8+ T cells producing IFN-γ 4H,[4]; peptide 50 pM,32%
same,Geometric mean IFN-γ in arbitrary fluorescence units 4H,[4]; peptide 50 pM,550 arbitrary fluorescence units
same,% CD8+ T cells producing IFN-γ 24H,[4]; peptide 50 pM,28%
same,Geometric mean IFN-γ in arbitrary fluorescence units 24H,[4]; peptide 50 pM,344 arbitrary fluorescence units
same,% CD8+ T cells producing IFN-γ 48H,[4]; peptide 50 pM,18%
same,Geometric mean IFN-γ in arbitrary fluorescence units 48H,[4]; peptide 50 pM,222 arbitrary fluorescence units
[am-phg][NVA]LGFV[4-FPHE]TL,% CD8+ T cells producing IFN-γ % IFN,[1],3.4%
same,Geometric mean IFN-γ in arbitrary fluorescence units Geo IFN,[1],242 arbitrary fluorescence units
same,% inhibition at T=4H and T=24H FP 24h,[2],97%
same,IC50 Ratio,[2],2
same,% Positive TCR recognition % TCR,[3],3.54%
same,Geometric mean IFN in arbitrary fluorescence units Geo TCR,[3],143 arbitrary fluorescence units
[am-phg][NVA]YDFFVWL (N-terminal am-phg and NVA),% CD8+ T cells producing IFN-γ,[6],significantly above background level

# From patent publication EP2649091B1, “IMMUNE RESTRICTED PEPTIDES WITH INCREASED EFFICACY” (Stichting Het Nederlands Kanker Instituut, priority 2010, dated 2012)
